Assay results reported in paper PMC8308740 (Pharmaceuticals, 2021).
“And” between values parts separate entries of the source, which are not always exact repeats. Identical values can stand only once. “Also recorded” adds a separate entry of the source. Like-named read-outs stand apart in the source and are kept apart here.

Experiments:
TbPTR1 [1] = target: T1, TbPTR1 (Trypanosoma brucei brucei, UniProt O76290); settings: read-out: TbPTR1 IC50; cited from earlier work
T1 construct: His tag; made in house; host or cells: E. coli
T1 sequence (O76290 1-268): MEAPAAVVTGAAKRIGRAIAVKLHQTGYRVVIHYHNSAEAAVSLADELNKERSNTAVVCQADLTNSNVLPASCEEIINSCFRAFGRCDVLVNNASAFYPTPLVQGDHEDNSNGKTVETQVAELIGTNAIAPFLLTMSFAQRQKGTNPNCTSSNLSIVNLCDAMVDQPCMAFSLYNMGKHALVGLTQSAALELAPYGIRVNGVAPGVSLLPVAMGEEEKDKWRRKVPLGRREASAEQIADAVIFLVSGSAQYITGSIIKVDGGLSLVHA

TbPTR1 [2] = target: T1, TbPTR1; test: biochemical; format: biochemical; settings: for Selectivity IC50 TbDHFR-TS /IC50 TbPTR1: ratio, for PYR and CYC calculated assuming a competitive inhibition mechanism; for IC50: recombinant enzyme, citrate buffer pH 3.7, 25 µM H2B, spread from CI95 of fitting; for fold improvement of inhibitory activity against TbPTR1 relative to CYC: versus CYC IC50
Method: (§1) Recombinant TbPTR1, TbDHFR-TS, and hDHFR were expressed in E. coli as histidine-tagged proteins and purified following established protocols. Purified recombinant enzymes were stored in stock solutions having concentrations of 0.93 mg/mL, 0.53 mg/mL, and 0.88 mg/mL, for TbPTR1, TbDHFR-TS, and hDHFR, respectively. A direct spectrophotometric kinetic test was used to evaluate the inhibitory activity of the compound library. A Jasco-V730 double beam spectrophotometer (Jasco Europe) was employed to perform the assays. Fixed final concentrations of purified TbPTR1, TbDHFR-TS, and hDHFR (15 nM, 55 nM, and 15 nM respectively) were incubated in semi-micro plastic cuvettes (Brand, Tech Scientific, Essex, UK) with 400 µL of sodium citrate buffer at pH = 3.7 and TES buffer (100 mM TES, 50 mM MgCl2, 13 mM CH2O, 2 mM EDTA, 150 mM 2-mercaptoethanol, pH 7.4), plus 25 µM 7,8-dihydro-L-biopterin (H2B, Sigma Aldrich) for TbPTR1 and 50 µM of 7,8-dihydrofolic acid (H2FA, Sigma Aldrich) for TbDHFR-TS and hDHFR enzymes.
(§2) Residual NADP(H) absorption (λmax = 340 nm), converted to NADP^+ as cofactor, was monitored for 180 s of the ongoing reaction and its Δ(OD)/min was registered for v(0) slope at 22.4 °C. Each inhibition assay was performed in triplicate, and five to six different concentrations of compounds were tested to assess their relative IC50.
(§3) The equation used to interpolate points was y = y(min) + (y(max) − y(min))/(1 + (IC50/x)^^HillSlope), where HillSlope was constrained at −1 (standard Michaelis–Menten behaviour for competitive inhibitors), from which IC50 were extrapolated. Standard deviations—as reported in Table 1—were obtained from 95% confidence interval (CI95) of fitting.

TbDHFR-TS = target: T2, TbDHFR-TS (Trypanosoma brucei brucei, UniProt Q27783); test: biochemical; format: biochemical; settings: for Selectivity IC50 hDHFR /IC50 TbDHFR-TS: ratio, PYR and CYC from Ki values
T2 construct: His tag; made in house; host or cells: E. coli
Method: as §1, §2, §3

hDHFR = target: T3, hDHFR (Homo sapiens, UniProt P00374); test: hDHFR spectrophotometric enzyme inhibition assay; format: biochemical; settings: TES buffer pH 7.4, 50 µM H2FA; spread from CI95 of fitting
T3 construct: His tag; made in house; host or cells: E. coli
T3 sequence (P00374 1-187): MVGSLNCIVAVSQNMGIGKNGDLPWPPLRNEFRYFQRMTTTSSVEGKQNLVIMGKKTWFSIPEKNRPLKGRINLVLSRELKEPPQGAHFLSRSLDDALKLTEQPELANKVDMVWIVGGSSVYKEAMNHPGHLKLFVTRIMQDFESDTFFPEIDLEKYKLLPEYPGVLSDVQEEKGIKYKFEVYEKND
Method: as §1, §2, §3

[3] = Stability of compound 6 in solution at different pH (HPLC-ELSD); format: physicochemical; settings: pH 10.5, 7 and 3.7, room temperature, overnight / 30 h
Method: Although it was unusual, we suspected the potential hydrolysis of the acetamido group to generate an amine and acetic acid. Therefore, we tested the compound stability at pH 10.5, 7, and 3.7 overnight at room temperature.
We have studied the stability of the CYC-like compound 6 to test the hydrolysis of the N-acetyl group in different pH buffers and to screen its putative prodrug action. We prepared three 10 µM solutions from a 100 µM DMSO stock of compound 6 in double deionized water, at pH 10.5 with NaOH, and in citrate buffer, pH 3.7, used for kinetic assays with TbPTR1. We have monitored the purity of these solutions with HPLC–ELSD just after compound dilutions. A volume of 7 µL of each solution was immediately injected in an HPLC Atlantis dC18, 150 × 3.9 mm, 3 µm ID column (Waters Corp, Milford, MA, US) coupled to an ELSD detector (Agilent 1260 Infinity II system). Compounds were eluted with 0.1% formic acid in water (A) and pure acetonitrile (B), gradient 10% to 50% B for 10 min, at 0.5 mL min^−1, room temperature. Detector parameters were set as follows: Neb = 30 °C, Evap = 40 °C, N2 flow = 1.6 SLM, smoothing = 3.0 s. […] Compound stability also was evaluated with 1H-NMR, obtaining the same results. We thus concluded that compound 6 is not susceptible to pH mediated hydrolysis, and acts as a TbPTR1 inhibitor as N-acetylated compounds.

[4] = target: the molecule itself; test: crystal structure; TbPTR1 crystals by hanging drop vapour diffusion at room temperature, 2-2.5 M sodium acetate, 0.1 M sodium citrate pH 5; soaked with 3 mM PYR; space group P21 with a functional tetramer in the asymmetric unit; NADP(H) bound
[5] = TES buffer pH 7.4, 50 µM H2FA, spread from CI95 of fitting, read-out: TbDHFR-TS (IC50 µM)

T2 sequence (Q27783 whole entry): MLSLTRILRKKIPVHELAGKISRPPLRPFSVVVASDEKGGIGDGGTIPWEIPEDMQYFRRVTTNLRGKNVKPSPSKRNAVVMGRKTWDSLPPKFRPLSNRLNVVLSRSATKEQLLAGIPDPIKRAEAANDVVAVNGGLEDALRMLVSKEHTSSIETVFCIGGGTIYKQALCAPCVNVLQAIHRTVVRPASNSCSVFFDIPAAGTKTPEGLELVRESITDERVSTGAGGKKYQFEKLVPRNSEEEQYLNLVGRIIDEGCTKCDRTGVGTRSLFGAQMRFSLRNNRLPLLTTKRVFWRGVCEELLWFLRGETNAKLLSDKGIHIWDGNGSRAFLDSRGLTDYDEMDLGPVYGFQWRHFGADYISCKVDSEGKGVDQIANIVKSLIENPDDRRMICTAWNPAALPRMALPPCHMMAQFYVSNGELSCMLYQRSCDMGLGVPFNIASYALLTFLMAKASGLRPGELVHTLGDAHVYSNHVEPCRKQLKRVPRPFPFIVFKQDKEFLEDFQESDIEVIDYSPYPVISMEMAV

**Q.** For `CC1(C)N=C(N)N=C(N)N1c1ccc(Cl)cc1` [CYC, cycloguanil], which IC50 (TbPTR1 [1]) is on record?
**A.** 31.6 µM

**Q.** Which “Selectivity IC50 TbDHFR-TS /IC50 TbPTR1” value (TbPTR1 [2]) does the source give for `CC1N=C(N)N=C(N)N1c1ccc(Cl)cc1` (stereo not shown) [Compound 1] here?
**A.** 16.9

**Q.** And the IC50 (TbPTR1 [2])?
**A.** 6.02 µM

**Q.** And the IC50 (TbDHFR-TS)?
**A.** 103 µM

**Q.** What about the “Selectivity IC50 hDHFR /IC50 TbDHFR-TS” value (TbDHFR-TS) of the same molecule?
**A.** 3.27

**Q.** What about the IC50 (hDHFR) of the same molecule?
**A.** 337 µM

**Q.** Which IC50 (TbPTR1 [1]) does the source give for `CC1(C)N=C(N)N=C(N)N1c1ccc(Cl)c(Cl)c1` [Compound 1a] here?
**A.** 0.692 µM

**Q.** For `CCCC1N=C(N)N=C(N)N1c1ccc(Cl)cc1` (stereo not shown) [Compound 2], which “Selectivity IC50 TbDHFR-TS /IC50 TbPTR1” value (TbPTR1 [2]) is on record?
**A.** 0.26

**Q.** What about the IC50 (TbPTR1 [2]) of the same molecule?
**A.** 27.5 µM

**Q.** What about the IC50 (TbDHFR-TS) of the same molecule?
**A.** 7.26 µM

**Q.** What about the “Selectivity IC50 hDHFR /IC50 TbDHFR-TS” value (TbDHFR-TS) of the same molecule?
**A.** 9.2 and 9.19

**Q.** What about the IC50 (hDHFR) of the same molecule?
**A.** 66.7 µM

**Q.** With `NC1=NC(c2ccc([N+](=O)[O-])cc2)N(c2ccc(Cl)c(Cl)c2)C(N)=N1` (stereo not shown) [Compound 2a] as the molecule, how does the IC50 (TbPTR1 [1]) read?
**A.** 0.186 µM

**Q.** What does the source list for `NC1=NC2(CCCCC2)N(c2ccc(Cl)cc2)C(N)=N1` [Compound 3]?
**A.** Selectivity IC50 TbDHFR-TS /IC50 TbPTR1 (TbPTR1 [2]): 14.4; IC50 (TbPTR1 [2]): 1.22 µM; fold improvement of inhibitory activity against TbPTR1 relative to CYC (TbPTR1 [2]): 30 fold; IC50 (TbDHFR-TS; [5]): 17.6 µM; Selectivity IC50 hDHFR /IC50 TbDHFR-TS (TbDHFR-TS): 3.73; IC50 (hDHFR): 65.6 µM

**Q.** For `CC1(C)N=C(N)N=C(N)N1c1ccc(O)cc1` [Compound 4], which “Selectivity IC50 TbDHFR-TS /IC50 TbPTR1” value (TbPTR1 [2]) is on record?
**A.** 21.7

**Q.** And the IC50 (TbPTR1 [2])?
**A.** 4.1 µM

**Q.** And the IC50 (TbDHFR-TS; [5])?
**A.** 89 µM

**Q.** What about the “Selectivity IC50 hDHFR /IC50 TbDHFR-TS” value (TbDHFR-TS) of the same molecule?
**A.** 3.19

**Q.** And the IC50 (hDHFR)?
**A.** 284 µM

**Q.** Which “Selectivity IC50 TbDHFR-TS /IC50 TbPTR1” value (TbPTR1 [2]) does the source give for `COc1ccc(N2C(N)=NC(N)=NC2(C)C)cc1` [Compound 5, 1-(4-methoxyphenyl)-6,6-dimethyl-1,6-dihydro-1,3,5-triazine-2,4-diamine] here?
**A.** 49.6

**Q.** What about the IC50 (TbPTR1 [2]) of the same molecule?
**A.** 0.67 µM

**Q.** What about the “fold improvement of inhibitory activity against TbPTR1 relative to CYC” value (TbPTR1 [2]) of the same molecule?
**A.** 46 fold

**Q.** What about the IC50 (TbDHFR-TS; [5]) of the same molecule?
**A.** 33.2 µM

**Q.** And the “Selectivity IC50 hDHFR /IC50 TbDHFR-TS” value (TbDHFR-TS)?
**A.** 12.4

**Q.** What about the IC50 (hDHFR) of the same molecule?
**A.** 413 µM

**Q.** Which “compound stability (hydrolysis of N-acetyl group), HPLC analysis” value [3] does the source give for `COc1ccc(N2C(N)=NC(NC(C)=O)=NC2(C)C)cc1` [Compound 6, N-[6-amino-5-(4-methoxyphenyl)-4,4-dimethyl-4,5-dihydrotriazin-2-yl]acetamide] here?
**A.** fully stable; also recorded: no changes in chromatograms were detected

**Q.** What about the “Selectivity IC50 TbDHFR-TS /IC50 TbPTR1” value (TbPTR1 [2]) of the same molecule?
**A.** 22.8

**Q.** What about the IC50 (TbPTR1 [2]) of the same molecule?
**A.** 0.83 µM

**Q.** What about the IC50 (TbDHFR-TS; [5]) of the same molecule?
**A.** 18.9 µM

**Q.** What about the “Selectivity IC50 hDHFR /IC50 TbDHFR-TS” value (TbDHFR-TS) of the same molecule?
**A.** 3.31

**Q.** And the IC50 (hDHFR)?
**A.** 62.5 µM

B1: Trypanosoma brucei pteridine reductase 1 (enzyme)
chain: T1 sequence (O76290 1-268)
notes: pteridine reductase 1 (PTR1) of Trypanosoma brucei, recombinant; also called TbPTR1; PTR1; source: E. coli, histidine-tagged, purified following established protocols
**Q.** With B1 as the molecule, how does the “stoichiometry N” value [4] read?
**A.** 4
